Consider six molecules from ChEMBL document CHEMBL5465560, “Selectivity Literature for EUbOPEN Chemogenomic Library” (2024).

Molecules are shown by their SMILES.

The target of test [1] is 5-hydroxytryptamine receptor 4 (Homo sapiens) (UniProt Q13639). As to the kind of experiment: Selectivity interaction (CEREB panel (panel of receptors, transporters, ion channels, and other enzymes)) EUB0001119a HTR4. Conditions: at 10 µM.
In test [2] the target is T1, 5-hydroxytryptamine receptor 1A (Homo sapiens) (UniProt P08908).
T1 sequence (whole entry): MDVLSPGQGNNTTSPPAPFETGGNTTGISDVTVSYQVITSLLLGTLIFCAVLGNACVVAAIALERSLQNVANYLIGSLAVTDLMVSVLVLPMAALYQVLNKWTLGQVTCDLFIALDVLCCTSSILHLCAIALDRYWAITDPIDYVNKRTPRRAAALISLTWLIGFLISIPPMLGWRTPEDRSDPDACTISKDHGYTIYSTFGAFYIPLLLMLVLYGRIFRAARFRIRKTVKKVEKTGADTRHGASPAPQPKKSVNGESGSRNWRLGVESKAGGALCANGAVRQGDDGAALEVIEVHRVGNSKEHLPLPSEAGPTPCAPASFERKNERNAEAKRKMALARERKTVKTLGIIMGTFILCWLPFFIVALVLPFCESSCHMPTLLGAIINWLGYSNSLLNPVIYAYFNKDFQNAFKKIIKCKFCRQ
As to the kind of experiment: Selectivity interaction (CEREB panel (panel of receptors, transporters, ion channels, and other enzymes)) EUB0001119a HTR1A. Conditions: at 10 µM.

Test [3] deals with 5-hydroxytryptamine receptor 1B (Homo sapiens) (UniProt P28222). Put plainly: Selectivity interaction (CEREB panel (panel of receptors, transporters, ion channels, and other enzymes)) EUB0001119a HTR1B. Conditions: at 10 µM.
Test [4] addresses 5-hydroxytryptamine receptor 2A (Homo sapiens, UniProt P28223). As to the kind of experiment: Selectivity interaction (CEREB panel (panel of receptors, transporters, ion channels, and other enzymes)) EUB0001119a HTR2A. Conditions: at 10 µM.
Test [5] has as its target T2, 5-hydroxytryptamine receptor 2B (Homo sapiens, UniProt P41595). Put plainly: Selectivity interaction (CEREB panel (panel of receptors, transporters, ion channels, and other enzymes)) EUB0001119a HTR2B. Conditions: at 10 µM.
The target of test [6] is Mitogen-activated protein kinase kinase kinase kinase 5 (Homo sapiens) (UniProt Q9Y4K4). As to the kind of experiment: Selectivity interaction (Kinase panel (Invitrogen)) EUB0001119a MAP4K5. Conditions: at 100 nM.
Chain of Mitogen-activated protein kinase kinase kinase kinase 5 (Homo sapiens) (Q9Y4K4 whole entry, looked up): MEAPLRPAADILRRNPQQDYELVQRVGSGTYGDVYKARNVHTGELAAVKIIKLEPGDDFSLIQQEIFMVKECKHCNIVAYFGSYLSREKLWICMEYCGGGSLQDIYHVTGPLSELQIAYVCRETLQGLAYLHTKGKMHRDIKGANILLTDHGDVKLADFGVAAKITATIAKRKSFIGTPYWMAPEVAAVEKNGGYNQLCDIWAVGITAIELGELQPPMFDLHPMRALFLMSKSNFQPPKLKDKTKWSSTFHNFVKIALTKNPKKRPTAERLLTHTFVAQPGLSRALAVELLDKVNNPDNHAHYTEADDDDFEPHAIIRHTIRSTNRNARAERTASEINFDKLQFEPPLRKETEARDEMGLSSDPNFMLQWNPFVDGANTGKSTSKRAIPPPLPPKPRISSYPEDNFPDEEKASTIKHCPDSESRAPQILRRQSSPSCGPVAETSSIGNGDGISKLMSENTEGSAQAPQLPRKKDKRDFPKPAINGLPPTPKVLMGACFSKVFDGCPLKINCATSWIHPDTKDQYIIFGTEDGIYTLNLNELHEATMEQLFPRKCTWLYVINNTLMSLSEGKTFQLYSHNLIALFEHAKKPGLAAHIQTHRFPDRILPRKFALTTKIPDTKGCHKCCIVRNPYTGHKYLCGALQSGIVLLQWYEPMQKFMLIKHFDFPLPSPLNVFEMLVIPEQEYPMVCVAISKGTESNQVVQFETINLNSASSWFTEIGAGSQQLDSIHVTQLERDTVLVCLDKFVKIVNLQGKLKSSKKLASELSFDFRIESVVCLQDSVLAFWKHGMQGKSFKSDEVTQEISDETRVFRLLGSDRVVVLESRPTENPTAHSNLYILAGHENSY
In test [7] the target is Tyrosine-protein kinase Lck (Homo sapiens, UniProt P06239). Put plainly: Selectivity interaction (Kinase panel (Invitrogen)) EUB0001119a LCK. Conditions: at 100 nM.
The target in test [8] is Serine/threonine-protein kinase 24 (Homo sapiens) (UniProt Q9Y6E0). Put plainly: Selectivity interaction (Kinase panel (Invitrogen)) EUB0001119a STK24. Conditions: at 100 nM.
Chain of Serine/threonine-protein kinase 24 (Homo sapiens) (Q9Y6E0 whole entry, looked up): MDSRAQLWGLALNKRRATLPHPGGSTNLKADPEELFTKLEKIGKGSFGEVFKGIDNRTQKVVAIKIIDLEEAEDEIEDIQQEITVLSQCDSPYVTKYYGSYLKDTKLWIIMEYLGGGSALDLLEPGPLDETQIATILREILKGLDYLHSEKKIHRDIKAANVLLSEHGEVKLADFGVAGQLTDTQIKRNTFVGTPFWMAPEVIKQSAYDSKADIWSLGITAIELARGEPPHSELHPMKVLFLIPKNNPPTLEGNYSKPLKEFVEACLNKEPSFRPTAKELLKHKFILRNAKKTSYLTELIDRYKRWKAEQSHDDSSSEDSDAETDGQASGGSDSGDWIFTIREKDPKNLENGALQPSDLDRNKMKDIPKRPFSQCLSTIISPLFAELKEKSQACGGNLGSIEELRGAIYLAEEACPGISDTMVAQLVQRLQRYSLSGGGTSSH
For test [9], the target named is Serine/threonine-protein kinase PAK 3 (Homo sapiens) (UniProt O75914). Put plainly: Selectivity interaction (Kinase panel (Invitrogen)) EUB0001119a PAK3. Conditions: at 100 nM.
Chain of Serine/threonine-protein kinase PAK 3 (Homo sapiens) (O75914 whole entry, looked up): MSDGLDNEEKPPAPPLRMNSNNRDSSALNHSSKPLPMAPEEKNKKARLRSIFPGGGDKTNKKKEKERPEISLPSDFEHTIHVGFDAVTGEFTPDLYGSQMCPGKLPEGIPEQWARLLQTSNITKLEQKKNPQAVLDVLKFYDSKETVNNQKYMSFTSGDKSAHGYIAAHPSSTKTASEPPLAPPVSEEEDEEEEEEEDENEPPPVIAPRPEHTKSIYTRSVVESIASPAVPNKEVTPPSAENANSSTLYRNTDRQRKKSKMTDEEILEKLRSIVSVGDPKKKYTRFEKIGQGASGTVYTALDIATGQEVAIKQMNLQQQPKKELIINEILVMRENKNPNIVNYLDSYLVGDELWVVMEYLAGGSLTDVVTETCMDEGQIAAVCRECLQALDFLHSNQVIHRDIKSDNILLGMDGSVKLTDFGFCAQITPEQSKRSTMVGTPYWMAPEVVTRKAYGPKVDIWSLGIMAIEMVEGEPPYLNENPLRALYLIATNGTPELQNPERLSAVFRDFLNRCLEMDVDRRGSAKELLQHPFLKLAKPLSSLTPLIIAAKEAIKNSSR
In test [10] the target is Sodium channel protein type 2 subunit alpha (Homo sapiens) (UniProt Q99250). Put plainly: Selectivity interaction (CEREB panel (panel of receptors, transporters, ion channels, and other enzymes)) EUB0001119a SCN2A. Conditions: at 10 µM.
For test [11], the target named is Serine/threonine-protein kinase SIK1 (Homo sapiens) (UniProt P57059). Put plainly: Selectivity interaction (Kinase panel (Invitrogen)) EUB0001119a SIK1. Conditions: at 100 nM.
Test [12] addresses Serine/threonine-protein kinase PAK 2 (Homo sapiens) (UniProt Q13177). Conditions: at 100 nM.
The target in test [13] is T3, Serine/threonine-protein kinase 26 (Homo sapiens, UniProt Q9P289). Conditions: at 100 nM.
T3 sequence (Q9P289 2-416 limits assumed): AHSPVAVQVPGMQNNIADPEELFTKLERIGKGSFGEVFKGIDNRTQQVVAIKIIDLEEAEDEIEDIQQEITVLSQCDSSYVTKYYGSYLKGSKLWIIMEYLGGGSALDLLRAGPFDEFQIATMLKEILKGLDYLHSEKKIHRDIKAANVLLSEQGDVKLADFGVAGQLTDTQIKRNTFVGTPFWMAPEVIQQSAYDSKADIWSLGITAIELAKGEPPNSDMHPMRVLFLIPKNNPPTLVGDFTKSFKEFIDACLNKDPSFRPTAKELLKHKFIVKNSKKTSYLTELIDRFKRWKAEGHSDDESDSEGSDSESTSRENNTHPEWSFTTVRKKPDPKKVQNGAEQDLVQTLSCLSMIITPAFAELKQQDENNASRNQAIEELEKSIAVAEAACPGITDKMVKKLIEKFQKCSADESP
Test [14] deals with T2, 5-hydroxytryptamine receptor 2B. Put plainly: Selectivity interaction (GPCR panel (PDSP screen)) EUB0001576a HTR2B. Conditions: at 10 µM.
Test [15] concerns the target Sodium-dependent dopamine transporter (Homo sapiens, UniProt Q01959). As to the kind of experiment: Selectivity interaction (GPCR panel (PDSP screen)) EUB0001576a SLC6A3. Conditions: at 10 µM.
Test [16] concerns the target Sigma intracellular receptor 2 (Homo sapiens) (UniProt Q5BJF2). As to the kind of experiment: Selectivity interaction (GPCR panel (PDSP screen)) EUB0001576a TMEM97. Conditions: at 10 µM.
Test [17] has as its target Calcium/calmodulin-dependent protein kinase type II subunit gamma (Homo sapiens) (UniProt Q13555). As to the kind of experiment: Selectivity interaction (KinaseProfile service (Milipore)) EUB0001485aCl CAMK2G. Conditions: at 1 µM.
The target in test [18] is Calcium/calmodulin-dependent protein kinase type II subunit delta (Homo sapiens) (UniProt Q13557). Conditions: at 1 µM.
Test [19] addresses MAP kinase-interacting serine/threonine-protein kinase 2 (Homo sapiens, UniProt Q9HBH9). Conditions: at 1 µM.
Test [20] has as its target Epithelial discoidin domain-containing receptor 1 (Homo sapiens) (UniProt Q08345). As to the kind of experiment: Selectivity interaction (Kinase panel (Reaction Biology)) EUB0001464a DDR1. Conditions: at 1 µM.
Test [21] addresses Mitogen-activated protein kinase kinase kinase kinase 5 (Homo sapiens) (UniProt Q9Y4K4). As to the kind of experiment: Selectivity interaction (Kinase panel (Reaction Biology)) EUB0001464a MAP4K5. Conditions: at 1 µM.
In test [22] the target is Bone morphogenetic protein receptor type-1B (Homo sapiens, UniProt O00238). Put plainly: Selectivity interaction (Kinase panel (Reaction Biology)) EUB0001184b BMPR1B. Conditions: at 1 µM.
The target of test [23] is Mitogen-activated protein kinase kinase kinase kinase 4 (Homo sapiens, UniProt O95819). Put plainly: Selectivity interaction (Kinase panel (Reaction Biology)) EUB0001184b MAP4K4. Conditions: at 1 µM.
Chain of Mitogen-activated protein kinase kinase kinase kinase 4 (O95819 2-1239 limits assumed): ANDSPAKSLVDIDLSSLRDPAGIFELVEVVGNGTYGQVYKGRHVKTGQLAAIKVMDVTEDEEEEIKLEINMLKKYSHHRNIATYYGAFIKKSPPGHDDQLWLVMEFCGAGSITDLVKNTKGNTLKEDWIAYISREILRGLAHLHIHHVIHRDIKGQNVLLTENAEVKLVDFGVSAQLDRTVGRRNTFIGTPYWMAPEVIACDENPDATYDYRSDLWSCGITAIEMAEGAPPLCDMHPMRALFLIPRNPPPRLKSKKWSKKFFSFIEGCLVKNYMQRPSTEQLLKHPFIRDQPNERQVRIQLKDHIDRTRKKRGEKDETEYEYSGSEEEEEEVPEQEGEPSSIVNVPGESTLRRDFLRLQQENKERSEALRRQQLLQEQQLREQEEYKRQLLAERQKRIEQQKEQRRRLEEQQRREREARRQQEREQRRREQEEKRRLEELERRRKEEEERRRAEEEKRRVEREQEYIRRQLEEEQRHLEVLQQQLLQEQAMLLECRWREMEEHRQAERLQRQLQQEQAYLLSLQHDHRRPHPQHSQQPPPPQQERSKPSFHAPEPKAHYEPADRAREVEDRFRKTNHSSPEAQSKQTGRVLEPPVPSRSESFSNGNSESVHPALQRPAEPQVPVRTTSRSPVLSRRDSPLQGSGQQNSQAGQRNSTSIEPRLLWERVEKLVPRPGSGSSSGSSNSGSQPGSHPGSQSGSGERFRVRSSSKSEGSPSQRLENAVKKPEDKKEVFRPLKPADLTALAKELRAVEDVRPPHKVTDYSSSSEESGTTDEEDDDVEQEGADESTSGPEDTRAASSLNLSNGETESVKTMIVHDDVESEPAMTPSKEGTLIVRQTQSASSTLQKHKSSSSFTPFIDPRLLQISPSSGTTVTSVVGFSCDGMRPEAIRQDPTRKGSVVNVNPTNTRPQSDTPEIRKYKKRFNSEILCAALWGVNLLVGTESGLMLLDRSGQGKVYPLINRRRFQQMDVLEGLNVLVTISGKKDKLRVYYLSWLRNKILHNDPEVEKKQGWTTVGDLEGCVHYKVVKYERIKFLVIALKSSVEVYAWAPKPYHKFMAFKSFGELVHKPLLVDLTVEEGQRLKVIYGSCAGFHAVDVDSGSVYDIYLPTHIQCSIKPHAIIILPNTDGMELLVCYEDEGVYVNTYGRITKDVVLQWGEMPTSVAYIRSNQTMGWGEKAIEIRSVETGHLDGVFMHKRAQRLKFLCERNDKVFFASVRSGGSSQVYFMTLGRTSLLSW
The target in test [24] is TRAF2 and NCK-interacting protein kinase (Homo sapiens) (UniProt Q9UKE5). As to the kind of experiment: Selectivity interaction (Kinase panel (Reaction Biology)) EUB0001184b TNIK. Conditions: at 1 µM.
Test [25] addresses Serine/threonine-protein kinase 24 (Homo sapiens) (UniProt Q9Y6E0). As to the kind of experiment: Selectivity interaction (Kinase panel (DSF assay)) EUB0001479a STK24. Background: Differential scanning fluorimetry follows unfolding on heating by fluorescence.
Test [26] addresses Serine/threonine-protein kinase PAK 1 (Homo sapiens) (UniProt Q13153). As to the kind of experiment: Selectivity interaction (Kinase panel (DSF assayt)) EUB0001479a PAK1.
Test [27] addresses T3, Serine/threonine-protein kinase 26. As to the kind of experiment: Selectivity interaction (Kinase panel (DSF assay)) EUB0001479a STK26.

T2 sequence (P41595 whole entry): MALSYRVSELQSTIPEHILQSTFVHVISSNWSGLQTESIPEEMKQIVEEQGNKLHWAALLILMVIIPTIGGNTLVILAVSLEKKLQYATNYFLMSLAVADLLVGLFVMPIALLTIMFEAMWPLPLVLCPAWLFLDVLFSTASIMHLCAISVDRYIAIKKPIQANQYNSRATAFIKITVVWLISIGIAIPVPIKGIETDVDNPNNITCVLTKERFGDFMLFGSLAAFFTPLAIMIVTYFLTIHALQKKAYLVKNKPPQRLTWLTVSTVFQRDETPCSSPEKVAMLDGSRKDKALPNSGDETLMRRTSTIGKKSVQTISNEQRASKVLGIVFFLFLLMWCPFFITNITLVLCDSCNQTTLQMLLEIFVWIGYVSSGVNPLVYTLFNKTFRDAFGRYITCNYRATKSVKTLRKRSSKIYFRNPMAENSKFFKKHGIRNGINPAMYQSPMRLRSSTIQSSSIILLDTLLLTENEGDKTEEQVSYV
Chain of Epithelial discoidin domain-containing receptor 1 (Homo sapiens) (Q08345 whole entry, the tested form may be a part): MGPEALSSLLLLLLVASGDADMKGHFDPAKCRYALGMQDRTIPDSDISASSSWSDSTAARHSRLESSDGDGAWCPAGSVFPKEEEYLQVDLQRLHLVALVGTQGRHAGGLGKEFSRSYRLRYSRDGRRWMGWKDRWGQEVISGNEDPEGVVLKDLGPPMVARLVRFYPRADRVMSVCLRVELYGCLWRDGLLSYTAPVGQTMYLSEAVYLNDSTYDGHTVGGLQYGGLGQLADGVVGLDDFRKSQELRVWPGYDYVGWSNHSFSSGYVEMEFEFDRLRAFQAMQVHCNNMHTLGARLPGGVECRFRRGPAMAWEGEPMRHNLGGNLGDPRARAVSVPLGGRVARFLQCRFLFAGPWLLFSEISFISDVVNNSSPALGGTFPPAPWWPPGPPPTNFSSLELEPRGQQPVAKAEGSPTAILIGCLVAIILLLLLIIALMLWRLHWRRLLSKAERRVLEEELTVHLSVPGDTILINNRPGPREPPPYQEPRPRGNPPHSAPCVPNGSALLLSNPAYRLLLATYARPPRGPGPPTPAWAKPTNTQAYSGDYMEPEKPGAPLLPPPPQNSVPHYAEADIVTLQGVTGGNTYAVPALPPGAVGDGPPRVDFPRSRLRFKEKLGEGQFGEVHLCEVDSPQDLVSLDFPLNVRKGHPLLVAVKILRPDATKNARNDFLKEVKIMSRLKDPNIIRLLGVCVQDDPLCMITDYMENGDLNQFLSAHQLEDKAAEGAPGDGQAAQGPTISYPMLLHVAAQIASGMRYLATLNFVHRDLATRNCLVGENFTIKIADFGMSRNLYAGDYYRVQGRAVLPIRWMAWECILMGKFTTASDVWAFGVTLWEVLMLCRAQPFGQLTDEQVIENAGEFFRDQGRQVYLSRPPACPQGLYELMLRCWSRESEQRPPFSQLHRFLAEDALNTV

For `CNc1ncc2cc(-c3ccc(-c4cccc(C)n4)cc3Cl)c(=O)n(C[C@H]3OC[C@H](N)CO3)c2n1`, the % of inhibition in test [1] amounted to 75%; in [2], 56%; in test [3], 84%; in [4], 75%; in [5] it was 92%; in test [6], 99.8%. Also, the % of inhibition in test [7] is 75.7%; in [8], 80.6%; in [9], 91.5%; in test [10], 75%; in test [11], 95.3%; in test [12] it was 101%. In addition, the % of inhibition in test [13] turned out to be 89.7%.
For the molecule `CN(C)C(=O)c1sc2nc(N3CCC(S(C)(=O)=O)CC3)cc(C(F)(F)F)c2c1N`, the values for the % of inhibition in test [14], in test [15] and in test [16] were 47.5%, 80.5% and 70.6%, respectively.
With `COc1cc(-c2cn[nH]c2)ccc1C(=O)Nc1ccc2c(c1)CCNCC2`, the % of control came out at 59% in test [17], 60% in [18] and 55% in test [19].
Consider `c1ccc2c(-c3coc4cc(-c5ccc(N6CCNCC6)cc5)cnc34)ccnc2c1`, for which the % of inhibition in test [20] and in test [21] was 28% each time.
As for `COc1cc(-c2cncc(-c3ccc(N4CCN(C(C)C)CC4)cc3)c2C)cc(F)c1C(N)=O`, the % of inhibition in test [22] stood at 27%; in [23], 30%; in test [24], 4.92%.
Turning to `CN(C)c1ncc2cc(-c3ccc(-c4ncccc4F)cc3Cl)c(=O)n(C[C@H]3OC[C@H](N)CO3)c2n1`, the dTM in test [25] was 0.2 K; in test [26] it was 0.9 K; in test [27] it was 0.8 K.
